Measured values reported in publication PMC8056227, “Deverra tortuosa (Desf.) DC from Saudi Arabia as a new source of marmin and furanocoumarins derivatives with α-glucosidase, antibacterial and cytotoxic activities” (Heliyon, 2021).

Key:
[1] = test system: Escherichia. coli: ATCC 25922; parameters: method as in Tsassi et al., 2010; settings: previous studies on marmin; ref Tsassi et al., 2010; cited from earlier work
α-glucosidase = test: α-Glucosidase inhibitory activity (PNPG substrate); format: biochemical; settings: pH 6.8, 37 °C, 30 min
Experimental: (2013)]. The substrate P-nitrophenyl-α-D-glucopyranoside (PNPG) was used for this experiment. Dimethyl sulfoxide (DMSO) was used to prepare different concentrations of the compounds (10–1000 μM). […] Afterwards, 40 μL of PNPG solution (0.375 mM) prepared in phosphate buffer (pH = 6.8) was added to the mixture and then incubated (37 °C for 30 min). 80 μL of Na2CO3 (0.2 M) prepared in phosphate buffer was added to the mixture. The absorbance was measured at 405 nm, and the measurement was replicated 3 times. The percentage of inhibition (%) reflects the α-glucosidase inhibitory activity and was calculated by formula (I):(I) α-glucosidase inhibition activity (%) = [(Acontrol – Asample)/Acontrol] × 100where Asample is the absorbance (405 nm) in the presence of the isolated compound and Acontrol is the absorbance (405 nm) of the control (A control consists of 20 μL potassium phosphate buffer instead of α-glucosidase solution).

[2] = test system: HCT116 (colorectal carcinoma) cells; test: MTT cytotoxicity assay, HCT116; format: cell-based; settings: Homo sapiens, HCT-116, 72 h, read-out: percentage of inhibition, HCT-116
Experimental: (§1) In the present study, two cancer cell lines were tested: HCT116 (colorectal carcinoma) and MCF-7 (breast cancer) (American Type Culture Collection, USA). Fetal calf serum (FCS: 10 %) and L-glutamine (2 mM) were used to make complete growth medium to conserve the cell lines (RPMI: Roswell Park Memorial Institute, France). Cell lines were incubated at 37 °C under atmosphere conditions of CO2 (5%). All tests were performed when the cells reached 80% confluence, and a trypan blue exclusion assay was used to test the viability of the cell lines ([Louis and Siegel, 2011]).
The cytotoxicity of the isolated compounds against HCT116 (colorectal carcinoma) and MCF-7 (breast cancer) cells was evaluated spectrophotometrically through an MTT assay. The assay was performed in 96-well microtiter plates ([Bekir et al., 2013]). The concentrations of HCT-116 and MCF-7 cells were fixed at 10 × 10^3 and 12 × 10^3 cells/well, respectively. The adherent cells were incubated overnight (37 °C) in a 5% enriched CO2 atmosphere. […] Cell viability was measured using formula II:II % Inhibition = 100∗[(Abs control – Abs blank control)/(Abs sample- Abs blank sample)]where Abs control is the absorbance measured of the total cell activity as described without any inhibition; Abs blank control is the absorbance of MTT substrate; and Abs sample is the absorbance of each inhibitor compound sample.

[3] = test system: MCF-7 (breast cancer) cells; test: MTT cytotoxicity assay, MCF-7; format: cell-based; settings: Homo sapiens, MCF7, 72 h, read-out: percentage of inhibition, MCF-7
Experimental: as §1
The cytotoxicity of the isolated compounds against HCT116 (colorectal carcinoma) and MCF-7 (breast cancer) cells was evaluated spectrophotometrically through an MTT assay. The assay was performed in 96-well microtiter plates ([Bekir et al., 2013]). The concentrations of HCT-116 and MCF-7 cells were fixed at 10 × 10^3 and 12 × 10^3 cells/well, respectively. The adherent cells were incubated overnight (37 °C) in a 5% enriched CO2 atmosphere. […] After removing the medium, incubated cells (37 °C) were mixed with 50 μL of MTT solution (3 mg/mL in phosphate-buffered saline, PBS) for 20–40 min. The […] proceeded by adding 80 μL of 100% DMSO. The measurement of the obtained reaction was taken spectrophotometrically at 540 nm. As a positive control, Doxorubicin, a conventional anticancer drug, was used. Cell viability was measured using formula II:II % Inhibition = […]where Abs control is the absorbance measured of the total cell activity as described without any inhibition; Abs blank control is the absorbance of MTT substrate; and Abs sample is the absorbance of each inhibitor compound sample.

[4] = test system: Salmonella typhimurium: ATCC 14028; test: Antibacterial well diffusion, S. typhimurium; format: cell-based; parameters: dose or concentration left out as unconfirmed
Text: (§2) ATCC strains (American Type Culture Collection) were purchased from BD (Becton, Dickinson and Company). These strains were primarily activated in brain heart infusion broth and then grown on nonselective media nutrient agar (NA). A total of 7 bacterial strains (Escherichia. coli: ATCC 25922, Klebsiella pneumonia: ATCC 700603, Proteus mirabilis: ATCC 14153, Salmonella typhimurium: ATCC 14028, Pseudomonas aeruginosa: ATCC 254992, Staphylococcus aureus: ATCC 254996 and Enterococcus faecalis: ATCC 29212) were tested for antibacterial activity.
(§3) The 0.5 Macfarland standards were used to prepare the bacterial inoculum from log phase bacterial growth. Muller-Hinton agar (MHA) media plates were prepared aseptically in a safety cabinet; the medium was used to evaluate antibacterial activity. Sterile cork borer was used to make five wells (6 mm). MHA medium was swabbed with fresh culture (24 h ATCC bacterial strains). […] As a positive control, 15 μg of tetracycline was used and the negative control consists of 50 μL DMSO. The test was conducted with 3 replications. The plates were incubated according to Clinical and Laboratory Standards Institute guidelines ([CLSI 2017]) and the experiments were carried out aerobically at 35–37 °C for 18–20 h. The diameter of the inhibition zone around the wells was measured using a ruler, and the mean and standard deviation were calculated for three readings.

[5] = test system: Enterococcus faecalis: ATCC 29212; test: Antibacterial well diffusion, E. faecalis; format: cell-based; parameters: dose or concentration left out as unconfirmed
Text: as §2, §3

[6] = test system: Proteus mirabilis: ATCC 14153; test: Antibacterial well diffusion, P. mirabilis; format: cell-based; parameters: dose or concentration left out as unconfirmed
Text: as §2, §3

[7] = test system: Klebsiella pneumonia: ATCC 700603; test: Antibacterial well diffusion, K. pneumonia; format: cell-based; parameters: zone of inhibition: dose or concentration left out as unconfirmed; settings: for antibacterial activity in words, K. pneumonia: 1 mg/mL; for zone of inhibition: Klebsiella pneumoniae, ATCC700603, range stated over 3 compounds and 3 strains
Text: as §2, §3

[8] = test system: Escherichia. coli: ATCC 25922; test: Antibacterial well diffusion, E. coli; format: cell-based; parameters: dose or concentration left out as unconfirmed; settings: ATCC25922, range stated over 3 compounds and 3 strains
Text: as §2
(§4) The 0.5 Macfarland standards were used to prepare the bacterial inoculum from log phase bacterial growth. Muller-Hinton agar (MHA) media plates were prepared aseptically in a safety cabinet; the medium was used to evaluate antibacterial activity. Sterile cork borer was used to make five wells (6 mm). MHA medium was swabbed with fresh culture (24 h ATCC bacterial strains). 50 μL of the tested compounds (0.5 mg/mL) prepared in DMSO were dispensed in the wells. As a positive control, 15 μg of tetracycline was used and the negative control consists of 50 μL DMSO. The test was conducted with 3 replications. The plates were incubated according to Clinical and Laboratory Standards Institute guidelines ([CLSI 2017]) and the experiments were carried out aerobically at 35–37 °C for 18–20 h. The diameter of the inhibition zone around the wells was measured using a ruler, and the mean and standard deviation were calculated for three readings.

[9] = test system: Pseudomonas aeruginosa: ATCC 254992; test: Antibacterial well diffusion, P. aeruginosa; format: cell-based; parameters: dose or concentration left out as unconfirmed; settings: ATCC254992, range stated over 3 compounds and 3 strains
Text: as §2, §4

SMILES | IC50 (α-glucosidase) | inhibition zone, E. coli (previous studies) [1] | inhibition at 100 µM [2] | inhibition at 100 µM [3] | zone of inhibition ([4]; Salmonella enterica, read-out: inhibition zone (IZ), S. typhimurium) | zone of inhibition ([5]; Enterococcus faecalis, ATCC29212, read-out: inhibition zone (IZ), E. faecalis) | antibacterial activity in words, P. mirabilis [6] | antibacterial activity in words, S. typhimurium [4] | antibacterial activity in words, K. pneumonia [7] | zone of inhibition [7] | antibacterial activity in words, E. faecalis [5] | zone of inhibition [8] | zone of inhibition [9]
CC(=CCOc1ccc2ccc(=O)oc2c1)CCC(O)C(C)(C)OC1OC(CO)C(O)C(O)C1O (stereo not drawn) [Compound 2, Pituranthoside] | 347 ± 11.2 µM |  | 42.7% | 29.9% | 21 mm | 22 mm |  |  |  |  |  |  | 
COc1c2ccoc2cc2oc(=O)ccc12 [Compound 4, Bergapten] |  |  |  |  |  |  | did not seem to be active | did not seem to be active | did not seem to be active | 6 to 12 mm | did not seem to be active | 6 to 12 mm | 6 to 12 mm
COc1c2ccoc2c(OC)c2oc(=O)ccc12 [Compound 5, Isopimpinellin] |  |  |  | 30.6% |  |  | did not seem to be active | did not seem to be active | did not seem to be active | 6 to 12 mm | did not seem to be active | 6 to 12 mm | 6 to 12 mm

Continued, in another order:

IC50 (α-glucosidase) | SMILES | inhibition zone, E. coli (previous studies) [1] | inhibition at 100 µM [2] | inhibition at 100 µM [3] | zone of inhibition ([4]; Salmonella enterica, read-out: inhibition zone (IZ), S. typhimurium) | zone of inhibition ([5]; Enterococcus faecalis, ATCC29212, read-out: inhibition zone (IZ), E. faecalis) | antibacterial activity in words, P. mirabilis [6] | antibacterial activity in words, S. typhimurium [4] | antibacterial activity in words, K. pneumonia [7] | zone of inhibition [7] | antibacterial activity in words, E. faecalis [5] | zone of inhibition [8] | zone of inhibition [9]
186 ± 8.3 µM | C/C(=C\COc1ccc2ccc(=O)oc2c1)CC[C@@H](O)C(C)(C)O [Compound 1, Marmin] | 9.5 mm | 41.8% | 17.1% |  |  |  |  |  |  |  |  | 
171 ± 7.6 µM | CC(C)=CCOc1c2ccoc2cc2oc(=O)ccc12 [Compound 3, Isoimperatorin] |  |  | 43.2% |  |  | did not seem to be active | did not seem to be active | did not seem to be active | 6 to 12 mm | did not seem to be active | 6 to 12 mm | 6 to 12 mm
